{"source": "patent US8372889B2", "about": "“Methods for modulating metabolism” (Omega Biopharma (I.P.3) Limited, priority 2004, dated 2013)", "key": {"GK diabetic rats [1]": {"system": "GK diabetic rats", "test": "Plasma insulin and adiponectin in GK diabetic rats (Example 3)", "format": "in vivo, rat", "experimental": "(§1) Thirty-six Goto-Kakizaki Wistar (GK) rats (purchased from Shanghai Slaccas Laboratory Animal Center) aged about 13 weeks and weighting 321-323 g were acclimated to the animal facility for two weeks in individual cages. Food and water were provided ad libitum.\n(§2) The 36 GK rats were divided into 4 groups based on body weight (BW) and plasma glucose level. Group 1 (control, n=10) was treated with saline by gavage (2 ml/rat); Group 2 (DC, n=6) was treated with cysteamine hydrochloride by gavage (22.5 mg/kg BW in 2 ml tap water); Group 3 (Metformin, Met, n=10) was treated with Metformin by gavage (34 mg/kg BW in 2 ml tap water); Group 4 (Met+DC, n=10) was treated with Metformin 34 mg/kg BW/day in 2 ml tap water for the first 10 days and then was treated with both cysteamine hydrochloride 22.5 mg/kg BW plus Metformin 34 mg/kg BW in 2 ml tap water for the second 10 days. All animals were treated at 10:00 for 20 days.\nThe four groups of animals were kept in the same room (temp 23±3° ., relative humidity 65±1%) in different cages with wire mesh bottoms to reduce coprophagia throughout the experiment. The rats were subjected to fasting overnight from 22:00 to 9:30 of the following day before being subjected to a glucose tolerance test. The rats were treated with glucose 2 g/kg BW in 2 ml tap water at 9:30 for the glucose tolerance test and the blood was collected from the tail vein at 0.5 hr, 1 hr, 2 hr, and 3 hr after glucose injection. Plasma glucose concentrations were determined by Glucotrendr2 equipment (Roche Diagnostics, Basel, Switzerland). Plasma insulin concentrations were determined by radioimmunoassay (Insulin RIA Kit, NO:0410, purchased from Shanghai Radioimmunoassay Research Institution)."}, "normal Wistar rats": {"system": "normal Wistar rats", "test": "Fasting plasma glucose and insulin in normal Wistar rats (Example 2)", "format": "in vivo, rat", "settings": "for Fasting glucose / Fasting insulin: normal Wistar rats, Mean ± STD", "experimental": "Thirty-two male Wistar rats (purchased from Shanghai Slaccas Laboratory Animal Center) aged about 13 weeks and weighting around 300 g were acclimated to the animal facility for two weeks in individual cages. Food and water were provided ad libitum. The Wistar rats were divided randomly into 4 groups and each group contained 8 rats. […] All animals were treated at 10:00 for 27 days. The four groups of animals were kept in the same room in different cages with wire mesh bottoms to reduce coprophagia throughout the experiment. […] Plasma glucose concentrations were determined by Glucotrendr2 equipment (Roche Diagnostics, Basel, Switzerland). Plasma insulin concentrations were determined by radioimmunoassay (Insulin RIA Kit, NO:0410, purchased from Shanghai Radioimmunoassay Research Institution). The abbreviation STD denotes the variability of the data about the mean or “standard deviation.” The abbreviation p denotes the level of significance of the results."}, "glut 4": {"system": "glut 4", "test": "glut 4 expression in different tissues of GK diabetic rats (Example 3)", "format": "in vivo, rat", "settings": "liver, muscles, adipocytes", "experimental": "Thirty-six Goto-Kakizaki Wistar (GK) rats (purchased from Shanghai Slaccas Laboratory Animal Center) aged about 13 weeks and weighting 321-323 g were acclimated to the animal facility for two weeks in individual cages. Food and water were provided ad libitum. The 36 GK rats were divided into 4 groups based on body weight (BW) and plasma glucose level. […] Group 2 (DC, n=6) was treated with cysteamine hydrochloride by gavage (22.5 mg/kg BW in 2 ml tap water); […] All animals were treated at 10:00 for 20 days."}, "diabetic patients": {"system": "diabetic patients", "test": "Open-label, randomized trial in diabetes type II patients (Example 4)", "settings": "for 24 h Microalbuminuria, Pre-treatment / FBS (fasting blood sugar), Pre-treatment / FCP (C peptide), Pre-treatment / FINS (fasting insulin), Pre-treatment / HOMA (Homeostasis Model Assessment), Pre-treatment / IGF, Pre-treatment / UA (blood uric acid), Pre-treatment: baseline before the trial treatment", "procedure": "A small open-label, randomized trial was carried out at the national reference center for diabetes in China. Sixty patients of both sexes (ages ranged from 30 to 75 years old) diagnosed with diabetes type II were recruited. All subjects were informed and gave their consent to participate. Diabetes was diagnosed based on the WHO criteria set in 1999. […] Patients with the following conditions were excluded from the study: (1) dysfunction of heart, liver and/or kidney; (2) with acute diabetic complications and/or any acute cardiovascular complications or other chronic diseases in the past three months; and (3) pregnancy or nursing.\nPatients were divided randomly into four groups of 15 patients each. A control group of subjects was not administered anti-diabetic drugs. The cysteamine alone (DC) group was treated with 540 mg/day of cysteamine hydrochloride. In the Metformin alone (Met) group, the dose of Metformin remained unchanged during the two months period. For the DC+Met group, patients remained on the same dose of Metformin they were originally administered, including an additional 100 mg/day of cysteamine hydrochloride. All patients were subjected to treatments for two months and samples were collected and measured at the beginning of, one month after, and two month after the trial for analysis. The results described herein are derived from the samples collected and measured at the beginning of the first month after the trial."}, "fat-feed rats": {"system": "fat-feed rats", "test": "Lipids, free fatty acid and uric acid in fat-feed rats (Example 5)", "format": "in vivo, rat", "settings": "for CH / FFA / HDL / LDL / TG / UA: Mean + STD"}, "GK diabetic rats [2]": {"system": "GK diabetic rats", "test": "Glucose tolerance test in GK diabetic rats (Example 3)", "format": "in vivo, rat", "experimental": "as §1, §2\nThe four groups of animals were kept in the same room (temp 23±3° ., relative humidity 65±1%) in different cages with wire mesh bottoms to reduce coprophagia throughout the experiment. […] Plasma glucose concentrations were determined by Glucotrendr2 equipment (Roche Diagnostics, Basel, Switzerland). Plasma insulin concentrations were determined by radioimmunoassay (Insulin RIA Kit, NO:0410, purchased from Shanghai Radioimmunoassay Research Institution)."}, "[3]": {"system": "Goto-Kakizaki Wistar rats (GK rats)", "test": "Oral glucose tolerance test and starving plasma glucose in GK rats (Example 1)", "settings": "oral Metformin alone", "procedure": "Nineteen male Goto-Kakizaki Wistar rats (GK rats) with weights of 300±20 g were kept in steel cages, 3-4 rats per cage. The cages were changed every two days. Indoor temperature and relative humidity was kept at 23±3° . and 65±1% respectively. Feed and drinking water was provided. GK rats were permitted a one-month period for adaptation.\nOne day prior to experimentation, at 17:00, all of the feed was removed from all groups, but not the drinking water. On the second day, at 09:30, starving plasma glucose was measured for all GK rats. At 10:00, glucose tolerance test (2 g/kg BW) was performed and the plasma glucose level was measured as well for all GK rats. […] On the ninth day, starving plasma glucose was measured and oral glucose tolerance test was performed again for all GK rats in all groups. […]\nSix days following the change in regimen, starving plasma glucose was measured and glucose tolerance tests were performed, and blood and tissue samples were collected (liver, duodenum, pancreas gland, fat, and muscle) for all GK rats in all groups. […]\nThe glucose tolerance tests that were performed included the steps of starving the GK rats overnight. Next day at 09:30, starving plasma glucose was measured. […]"}, "[4]": {"settings": "DC15: 15 mg/kg BW by gavage for 27 days"}, "[5]": {"settings": "DC22.5: 22.5 mg/kg BW by gavage for 27 days"}, "[6]": {"settings": "DC30: 30 mg/kg BW by gavage for 27 days"}, "[7]": {"settings": "normal, fasting Wistar rats, 15-30 mg/kg BW"}, "[8]": {"settings": "doses of 11.25 mg/kg and 22.5 mg/kg"}}, "note": "Structures can show the parent of a compound that is named as a salt."}
{"smiles": "NCCS", "note": "[cysteamine hydrochloride]", "values": [{"measurement": "adiponectin (in words)", "setting": "GK diabetic rats [1]", "value": "significantly increased"}, {"measurement": "insulin levels (in words)", "setting": "GK diabetic rats [1]", "value": "did not affect"}, {"measurement": "Fasting glucose", "setting": "normal Wistar rats; [4]", "value": "4.05 ± 0.23"}, {"measurement": "Fasting insulin", "setting": "normal Wistar rats; [4]", "value": "48.82 ± 3.27"}, {"measurement": "Fasting glucose", "setting": "normal Wistar rats; [5]", "value": "3.94 ± 0.27"}, {"measurement": "Fasting insulin", "setting": "normal Wistar rats; [5]", "value": "48.39 ± 2.38"}, {"measurement": "Fasting glucose", "setting": "normal Wistar rats; [6]", "value": "3.95 ± 0.17"}, {"measurement": "Fasting insulin", "setting": "normal Wistar rats; [6]", "value": "51.32 ± 2.94"}, {"measurement": "blood glucose levels (in words)", "setting": "normal Wistar rats; [7]", "value": "dose-dependent effect on lowering"}, {"measurement": "blood insulin levels (in words)", "setting": "normal Wistar rats; [7]", "value": "does not affect"}, {"measurement": "expression of total glut4 (in words)", "setting": "glut 4", "value": "significantly increase"}, {"measurement": "C peptide (CP) (in words)", "setting": "diabetic patients", "value": "decreases significantly"}, {"measurement": "HOMA (Homeostasis Model Assessment) (in words)", "setting": "diabetic patients", "value": "decreases significantly"}, {"measurement": "blood uric acid (UA) levels (in words)", "setting": "diabetic patients", "value": "decreases significantly"}, {"measurement": "fasting insulin (FINS) (in words)", "setting": "diabetic patients", "value": "decreases significantly"}, {"measurement": "insulin-like growth factor 1 (IGF1) (in words)", "setting": "diabetic patients", "value": "decreases significantly"}, {"measurement": "microalbuminuria (in words)", "setting": "diabetic patients", "value": "obvious but not statistically significantly"}, {"measurement": "24 h Microalbuminuria, Pre-treatment", "setting": "diabetic patients", "value": "42.73 ± 31.33"}, {"measurement": "FBS (fasting blood sugar), Pre-treatment", "setting": "diabetic patients", "value": "7.52 ± 1.57"}, {"measurement": "FCP (C peptide), Pre-treatment", "setting": "diabetic patients", "value": "739 ± 183"}, {"measurement": "FINS (fasting insulin), Pre-treatment", "setting": "diabetic patients", "value": "35.39 ± 14.43"}, {"measurement": "HOMA (Homeostasis Model Assessment), Pre-treatment", "setting": "diabetic patients", "value": "11.94 ± 4.62"}, {"measurement": "IGF, Pre-treatment", "setting": "diabetic patients", "value": "49.36 ± 5.75"}, {"measurement": "UA (blood uric acid), Pre-treatment", "setting": "diabetic patients", "value": "389 ± 50.98"}, {"measurement": "LDL (in words)", "setting": "fat-feed rats", "value": "decrease LDL but not significantly"}, {"measurement": "CH", "setting": "fat-feed rats; DC11.25: 11.25 mg/kg", "value": "1.6 ± 0.31", "unit": "mmol/L"}, {"measurement": "FFA", "setting": "fat-feed rats; DC11.25: 11.25 mg/kg", "value": "842 ± 256", "unit": "µmol/L"}, {"measurement": "HDL", "setting": "fat-feed rats; DC11.25: 11.25 mg/kg", "value": "1.11 ± 0.16", "unit": "mmol/L"}, {"measurement": "LDL", "setting": "fat-feed rats; DC11.25: 11.25 mg/kg", "value": "0.61 ± 0.18", "unit": "mmol/L"}, {"measurement": "TG", "setting": "fat-feed rats; DC11.25: 11.25 mg/kg", "value": "1.15 ± 0.12", "unit": "mmol/L"}, {"measurement": "UA", "setting": "fat-feed rats; DC11.25: 11.25 mg/kg", "value": "17.41 ± 1.99", "unit": "mg/L"}, {"measurement": "CH", "setting": "fat-feed rats; DC22.5: 22.5 mg/kg", "value": "1.55 ± 0.27", "unit": "mmol/L"}, {"measurement": "FFA", "setting": "fat-feed rats; DC22.5: 22.5 mg/kg", "value": "1087 ± 181", "unit": "µmol/L"}, {"measurement": "HDL", "setting": "fat-feed rats; DC22.5: 22.5 mg/kg", "value": "1.04 ± 0.09", "unit": "mmol/L"}, {"measurement": "LDL", "setting": "fat-feed rats; DC22.5: 22.5 mg/kg", "value": "0.63 ± 0.18", "unit": "mmol/L"}, {"measurement": "TG", "setting": "fat-feed rats; DC22.5: 22.5 mg/kg", "value": "1.1 ± 0.08", "unit": "mmol/L"}, {"measurement": "UA", "setting": "fat-feed rats; DC22.5: 22.5 mg/kg", "value": "16.12 ± 1.04", "unit": "mg/L"}, {"measurement": "free fatty acid (in words)", "setting": "fat-feed rats; at doses indicated", "value": "significantly decrease"}, {"measurement": "uric acid (in words)", "setting": "fat-feed rats; at doses indicated", "value": "significantly decrease"}, {"measurement": "cholesterol levels (in words)", "setting": "fat-feed rats; [8]", "value": "can decrease"}, {"measurement": "triglyceride levels (in words)", "setting": "fat-feed rats; [8]", "value": "can decrease"}, {"measurement": "HDL (in words)", "setting": "fat-feed rats; not significantly", "value": "trend that cysteamine can increase HDL"}, {"measurement": "Glucose tolerance test, plasma glucose, 2 hr", "setting": "GK diabetic rats [2]; gavage DC 22.5 mg/kg BW, Metformin 34 mg/kg BW, 20 days, Met+DC: DC added for second 10 days, after glucose 2 g/kg BW, Mean ± STD", "value": "11.00 ± 0.8", "unit": "mmol/L"}, {"measurement": "glucose levels (in words)", "setting": "GK diabetic rats [2]; glucose tolerance test, combination compared with Metformin alone, all time points except Fasting", "value": "did not affect"}]}
{"smiles": "CN(C)C(=N)N=C(N)N", "note": "[Metformin, reference compound]", "values": [{"measurement": "insulin levels (in words)", "setting": "GK diabetic rats [1]", "value": "decreased, but not statistically significant"}, {"measurement": "duodenal plasma glucose levels and insulin resistance (in words)", "setting": "[3]", "value": "to some extent, lowers"}, {"measurement": "expression of total glut4 (in words)", "setting": "glut 4", "value": "increased, but not significantly"}, {"measurement": "insulin-like growth factor 1 (IGF1) (in words)", "setting": "diabetic patients", "value": "only a decrease"}, {"measurement": "24 h Microalbuminuria, Pre-treatment", "setting": "diabetic patients", "value": "27.5 ± 23.69"}, {"measurement": "FBS (fasting blood sugar), Pre-treatment", "setting": "diabetic patients", "value": "8.92 ± 2.7"}, {"measurement": "FCP (C peptide), Pre-treatment", "setting": "diabetic patients", "value": "579 ± 212"}, {"measurement": "FINS (fasting insulin), Pre-treatment", "setting": "diabetic patients", "value": "19.35 ± 10.2"}, {"measurement": "HOMA (Homeostasis Model Assessment), Pre-treatment", "setting": "diabetic patients", "value": "7.33 ± 3.3"}, {"measurement": "IGF, Pre-treatment", "setting": "diabetic patients", "value": "52.81 ± 10.04"}, {"measurement": "UA (blood uric acid), Pre-treatment", "setting": "diabetic patients", "value": "320 ± 67"}]}
